Data: patent US12195464B2, “Lumateperone bis-tosylate salts and crystals and methods for manufacture thereof” (INTRA-CELLULAR THERAPIES, INC., priority 2018, dated 2025)
One block for each compound: values may come before it.

Assays:
5-HT2C = target: T1, 5-HT2C (Homo sapiens, UniProt P28335); details: receptor associated with cognitive and metabolic side effects; cited from earlier work
T1 sequence (P28335 33-458): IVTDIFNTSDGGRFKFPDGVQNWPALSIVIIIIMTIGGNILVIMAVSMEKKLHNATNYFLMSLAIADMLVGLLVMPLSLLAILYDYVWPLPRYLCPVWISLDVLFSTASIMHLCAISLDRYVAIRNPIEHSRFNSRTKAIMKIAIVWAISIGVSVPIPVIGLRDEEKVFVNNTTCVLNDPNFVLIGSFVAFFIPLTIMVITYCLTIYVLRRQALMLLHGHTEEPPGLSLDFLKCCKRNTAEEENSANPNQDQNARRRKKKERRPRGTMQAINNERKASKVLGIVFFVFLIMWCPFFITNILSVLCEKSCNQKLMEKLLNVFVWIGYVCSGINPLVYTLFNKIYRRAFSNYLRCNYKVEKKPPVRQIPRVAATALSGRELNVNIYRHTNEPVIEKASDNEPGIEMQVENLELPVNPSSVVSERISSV

NMDA and AMPA signaling = details: especially in the medial prefrontal cortex (mPFC); indirectly via D1 interaction; cited from earlier work
muscarinic = details: receptor associated with cognitive and metabolic side effects; cited from earlier work
[1] = free base form; cited from earlier work
[2] = solubility in organic solvents; type: physicochemical; details: free base, variety of organic solvents
H1 histaminergic = H1 histaminergic (Homo sapiens, UniProt P35367); details: receptor associated with cognitive and metabolic side effects; cited from earlier work
Chain of H1 histaminergic (P35367 whole entry): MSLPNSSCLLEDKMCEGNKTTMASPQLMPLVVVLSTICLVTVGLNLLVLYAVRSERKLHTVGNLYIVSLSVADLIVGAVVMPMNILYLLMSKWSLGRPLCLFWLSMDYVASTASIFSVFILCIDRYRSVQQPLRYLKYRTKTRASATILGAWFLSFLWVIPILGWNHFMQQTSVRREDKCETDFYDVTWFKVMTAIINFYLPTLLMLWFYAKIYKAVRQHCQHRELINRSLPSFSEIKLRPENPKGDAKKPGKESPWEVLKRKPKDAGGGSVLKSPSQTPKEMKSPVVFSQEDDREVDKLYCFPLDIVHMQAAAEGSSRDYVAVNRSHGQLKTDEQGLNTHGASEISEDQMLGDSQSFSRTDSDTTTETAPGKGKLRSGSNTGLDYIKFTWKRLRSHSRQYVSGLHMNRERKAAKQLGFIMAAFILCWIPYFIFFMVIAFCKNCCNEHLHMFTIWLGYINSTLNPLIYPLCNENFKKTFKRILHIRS

[3] = salt of U.S. Pat. No. 7,183,282; cited from earlier work
[4] = salt of U.S. Pat. No. 7,183,282; cited from earlier work; remark: listed apart in the source

solubility in organic solvents [2]: good solubility
SMILES: CN1CCN2c3c(cccc31)[C@@H]1CN(CCCC(=O)c3ccc(F)cc3)CC[C@@H]12 [ITI-007, 4-((6bR,10aS)-3-methyl-2,3,6b,9,10,10a-hexahydro-1H-pyrido[3′,4′:4,5]pyrrolo[1,2,3-de]quinoxalin-8(7H)-yl)-1-(4-fluorophenyl)-1-butanone]
binding to 5-HT2C receptor (5-HT2C): negligible binding
NMDA and AMPA signaling in the brain (NMDA and AMPA signaling): enhanced
binding to muscarinic receptors (muscarinic): negligible binding
aqueous solubility [1]: poor aqueous solubility
binding to H1 histaminergic receptor (H1 histaminergic): negligible binding

SMILES: CN1CCN2c3c(cccc31)C1CN(CCCC(=O)c3ccc(F)cc3)CCC12.Cl (centres unmarked) [hydrochloride salt form of ITI-007]
hygroscopicity (in words) [3]: hygroscopic
stability (in words) [4]: poor stability
